Assay in all cases: HTS ATP-utilizing enzyme assay, off-chip mobility-shift (Caliper HTS 250)
Holding throughout (conditions): test compound 10 μM, kinase listed = active (greater than six-sigma from the mean activity of inactive compounds)

The target in one assay is ABL1 (Homo sapiens, UniProt P00519). The format is biochemical. The procedure, abridged: (§1)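 Steps: compound added at 10 μM final; enzyme then peptide substrate added in HEPES pH 7.5, Triton X-100, BSA buffer; incubation 2.5 hrs at 20° C. to 22° C.; EDTA quench; microfluidic separation of substrate and phosphoproduct. DMSO wells set 0% inhibition, EDTA wells 100%.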
Sequence of ABL1 (P00519 whole entry): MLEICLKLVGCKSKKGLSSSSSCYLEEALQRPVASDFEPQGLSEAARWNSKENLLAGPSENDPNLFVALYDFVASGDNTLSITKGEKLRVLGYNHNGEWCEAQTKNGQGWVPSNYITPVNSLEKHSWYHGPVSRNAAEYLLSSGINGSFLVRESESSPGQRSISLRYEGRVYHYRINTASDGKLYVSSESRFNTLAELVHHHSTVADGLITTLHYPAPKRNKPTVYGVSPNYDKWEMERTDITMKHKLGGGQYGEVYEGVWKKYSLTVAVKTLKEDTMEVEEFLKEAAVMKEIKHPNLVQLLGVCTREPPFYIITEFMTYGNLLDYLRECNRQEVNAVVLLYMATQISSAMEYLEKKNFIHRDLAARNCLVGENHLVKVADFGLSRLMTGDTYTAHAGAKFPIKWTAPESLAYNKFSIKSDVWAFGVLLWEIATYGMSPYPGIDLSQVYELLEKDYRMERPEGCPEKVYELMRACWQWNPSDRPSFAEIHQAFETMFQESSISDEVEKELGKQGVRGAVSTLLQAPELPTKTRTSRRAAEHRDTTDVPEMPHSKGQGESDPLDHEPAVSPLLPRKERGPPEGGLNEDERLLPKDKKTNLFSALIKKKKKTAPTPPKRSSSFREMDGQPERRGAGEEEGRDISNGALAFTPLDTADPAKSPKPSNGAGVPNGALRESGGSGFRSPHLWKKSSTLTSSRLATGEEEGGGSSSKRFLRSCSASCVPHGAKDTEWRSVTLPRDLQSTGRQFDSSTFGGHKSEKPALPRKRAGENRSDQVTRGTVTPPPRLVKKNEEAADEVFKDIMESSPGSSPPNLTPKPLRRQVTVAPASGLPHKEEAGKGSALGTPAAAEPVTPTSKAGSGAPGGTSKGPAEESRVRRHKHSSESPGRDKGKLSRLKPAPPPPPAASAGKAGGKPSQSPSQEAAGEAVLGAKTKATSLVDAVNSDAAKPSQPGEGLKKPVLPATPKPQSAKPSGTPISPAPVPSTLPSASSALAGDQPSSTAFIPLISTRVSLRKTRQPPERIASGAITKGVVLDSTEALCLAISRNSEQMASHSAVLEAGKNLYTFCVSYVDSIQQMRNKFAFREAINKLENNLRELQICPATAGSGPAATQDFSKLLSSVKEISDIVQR
A further assay has as its target LCK (Homo sapiens, UniProt P06239). The format is biochemical. The procedure, abridged:
as §1

The target in the next assay is SRC (Homo sapiens, UniProt P12931). The format is biochemical. The procedure, abridged:
as §1

The subject of the next assay is CK2. The format is biochemical, human. From the text: The following procedures describe the reagent and plate preparation for a HTS of an ATP-utilizing enzyme, such as a protein kinase, run in an off-chip mobility-shift assay format. The following provides an HTS protocol for running a protein kinase HTS screen on a Caliper HTS 250 microfluidics system. The following parameters are dependent on the protein kinase used and can be determined by one skilled in the art as part of a typical assay development process. For example, the peptide substrate used can be identified from the current literature, by screening a peptide library of potential protein kinase substrates, or by other applicable means accepted in the field.
The following table provides typical screen assay parameters appropriate for a Caliper HTS 250 microfluidics system.
The reagents and buffers listed in the following table are generally applicable for developing and running an HTS screen on a human protein kinase using the Caliper HTS 250 system.
The following reagents were prepared using the previously described buffers.
A 2× Master Buffer solution was prepared by combining 200 mL of 1 M HEPES, pH 7.5, 2 mL of 10% Triton X-100, 20 mL of 10% BSA, and 778 mL of H2O.
A 2.5× Substrate Buffer solution was prepared by combining 177.408 mL of 2× Master Buffer, 0.887 mL of 1 mM peptide-X, and 176.521 mL of H2O.
A 1.55× Termination Buffer solution was prepared by combining 762.05 mL of 2× Master Buffer, 95.1 mL of 0.5 M EDTA, and 666.94 mL of H2O. […]
Assays to determine the kinase inhibitory activity of compounds of the present disclosure were performed using a Caliper HTS 250 microfluidics device, Greiner U-bottom assay plates, a Multidrop for transfer of reagents, and Biomek FX (AMNCBM03) software. […] The inhibition of the ATP-utilizing enzyme, such as a particular protein kinase, was determined by measuring the ratio of the peptide substrate to phosphorylated product for each well of the assay plate using the Caliper HTS 250 system. […]

In a further assay the target is MSK1 (Homo sapiens, UniProt O75582). The format is biochemical. The procedure, abridged:
as §1

The target in another assay is AKT1 (Homo sapiens, UniProt P31749). The assay is classed as biochemical. The procedure, abridged: as §1
Sequence of AKT1 (P31749 whole entry): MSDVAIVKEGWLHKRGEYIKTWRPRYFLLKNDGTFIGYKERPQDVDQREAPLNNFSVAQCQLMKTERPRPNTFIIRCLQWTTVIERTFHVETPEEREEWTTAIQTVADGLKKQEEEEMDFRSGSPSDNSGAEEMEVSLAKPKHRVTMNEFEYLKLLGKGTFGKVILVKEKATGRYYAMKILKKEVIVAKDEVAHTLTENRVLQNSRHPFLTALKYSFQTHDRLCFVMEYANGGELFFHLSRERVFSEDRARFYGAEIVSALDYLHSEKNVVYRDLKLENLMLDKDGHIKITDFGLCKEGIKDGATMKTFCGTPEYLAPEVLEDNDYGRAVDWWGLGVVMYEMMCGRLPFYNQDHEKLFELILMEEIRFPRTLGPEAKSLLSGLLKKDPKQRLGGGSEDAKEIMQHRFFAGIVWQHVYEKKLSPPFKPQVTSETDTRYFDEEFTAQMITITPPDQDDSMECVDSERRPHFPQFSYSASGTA
Another assay deals with PKA (Homo sapiens, UniProt P17612). The assay is classed as biochemical. The procedure, abridged: as §1
Another assay concerns the target CDK5 (Homo sapiens, UniProt Q00535). The format is biochemical. The procedure, abridged: as §1
The target of the next assay is GSK-3-β (Homo sapiens, UniProt P49841). The assay is classed as biochemical. The procedure, abridged:
as §1

The text below walks through data of US7452887B2, “Quinoline- and isoquinoline-based compounds exhibiting ATP-utilizing enzyme inhibitory activity, and compositions, and uses thereof” (Amphora Discovery Corporation, priority 2004, dated 2008).

Sequence of CDK5 (Q00535 whole entry): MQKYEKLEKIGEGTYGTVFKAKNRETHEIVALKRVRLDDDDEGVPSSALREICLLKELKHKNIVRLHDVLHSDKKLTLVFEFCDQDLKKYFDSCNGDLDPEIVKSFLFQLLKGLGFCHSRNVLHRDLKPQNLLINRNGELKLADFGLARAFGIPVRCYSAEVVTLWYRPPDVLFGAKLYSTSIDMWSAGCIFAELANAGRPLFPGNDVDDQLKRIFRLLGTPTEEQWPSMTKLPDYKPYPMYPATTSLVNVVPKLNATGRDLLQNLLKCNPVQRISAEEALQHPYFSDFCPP
Sequence of CDK5 (Q15078 whole entry partner): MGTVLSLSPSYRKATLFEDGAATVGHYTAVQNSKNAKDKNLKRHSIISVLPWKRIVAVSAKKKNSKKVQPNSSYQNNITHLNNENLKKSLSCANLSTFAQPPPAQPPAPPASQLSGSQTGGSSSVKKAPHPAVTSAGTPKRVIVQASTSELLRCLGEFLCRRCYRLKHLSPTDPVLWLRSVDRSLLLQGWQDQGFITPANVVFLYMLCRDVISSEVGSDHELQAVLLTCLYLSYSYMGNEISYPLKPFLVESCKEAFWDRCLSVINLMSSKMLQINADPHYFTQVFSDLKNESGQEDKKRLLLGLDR
Sequence of MSK1 (O75582 whole entry): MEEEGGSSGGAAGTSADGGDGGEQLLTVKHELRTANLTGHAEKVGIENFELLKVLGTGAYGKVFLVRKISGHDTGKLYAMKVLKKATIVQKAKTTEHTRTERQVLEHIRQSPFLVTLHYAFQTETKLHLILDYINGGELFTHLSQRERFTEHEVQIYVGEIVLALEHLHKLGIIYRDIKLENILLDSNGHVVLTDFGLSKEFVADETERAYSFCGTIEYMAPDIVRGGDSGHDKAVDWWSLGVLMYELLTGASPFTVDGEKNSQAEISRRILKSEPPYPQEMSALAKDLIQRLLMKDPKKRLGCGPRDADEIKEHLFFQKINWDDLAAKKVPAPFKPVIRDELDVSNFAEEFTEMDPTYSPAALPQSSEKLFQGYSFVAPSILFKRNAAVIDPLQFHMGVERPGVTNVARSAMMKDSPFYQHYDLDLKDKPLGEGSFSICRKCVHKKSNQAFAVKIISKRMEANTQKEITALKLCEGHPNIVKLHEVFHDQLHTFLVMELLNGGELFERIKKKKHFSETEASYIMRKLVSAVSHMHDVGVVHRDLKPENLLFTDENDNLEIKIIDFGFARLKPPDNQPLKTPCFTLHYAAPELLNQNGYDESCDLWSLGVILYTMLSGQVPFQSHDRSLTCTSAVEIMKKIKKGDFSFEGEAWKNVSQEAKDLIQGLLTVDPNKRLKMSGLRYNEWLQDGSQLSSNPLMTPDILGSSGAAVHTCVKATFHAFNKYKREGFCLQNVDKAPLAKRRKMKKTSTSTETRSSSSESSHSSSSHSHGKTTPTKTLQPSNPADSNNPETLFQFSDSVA
Sequence of GSK-3-β (P49841 whole entry): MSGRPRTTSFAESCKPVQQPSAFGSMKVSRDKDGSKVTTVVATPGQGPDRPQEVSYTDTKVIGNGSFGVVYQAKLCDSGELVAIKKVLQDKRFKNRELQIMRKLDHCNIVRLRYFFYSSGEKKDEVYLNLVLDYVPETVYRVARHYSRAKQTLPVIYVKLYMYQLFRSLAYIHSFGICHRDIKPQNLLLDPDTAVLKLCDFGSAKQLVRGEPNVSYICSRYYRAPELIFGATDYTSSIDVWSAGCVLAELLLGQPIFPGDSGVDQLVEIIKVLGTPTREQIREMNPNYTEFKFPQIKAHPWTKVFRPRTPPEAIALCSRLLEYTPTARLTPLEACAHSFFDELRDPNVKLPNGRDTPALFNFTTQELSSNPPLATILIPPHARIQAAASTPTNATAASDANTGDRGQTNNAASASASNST
Sequence of LCK (P06239 whole entry): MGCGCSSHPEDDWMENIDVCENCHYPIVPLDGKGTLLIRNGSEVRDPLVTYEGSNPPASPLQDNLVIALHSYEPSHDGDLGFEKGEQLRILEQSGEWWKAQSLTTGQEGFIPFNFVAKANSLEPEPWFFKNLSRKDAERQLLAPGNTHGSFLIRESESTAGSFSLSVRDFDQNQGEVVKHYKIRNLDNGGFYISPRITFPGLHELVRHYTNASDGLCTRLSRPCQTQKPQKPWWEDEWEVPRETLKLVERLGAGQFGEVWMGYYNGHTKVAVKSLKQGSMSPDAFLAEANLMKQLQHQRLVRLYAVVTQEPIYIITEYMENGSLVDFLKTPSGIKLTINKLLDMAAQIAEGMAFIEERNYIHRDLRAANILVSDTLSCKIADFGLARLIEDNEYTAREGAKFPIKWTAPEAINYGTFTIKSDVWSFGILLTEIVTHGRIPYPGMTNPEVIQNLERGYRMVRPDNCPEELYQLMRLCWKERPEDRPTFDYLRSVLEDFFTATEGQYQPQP
Sequence of SRC (P12931 whole entry): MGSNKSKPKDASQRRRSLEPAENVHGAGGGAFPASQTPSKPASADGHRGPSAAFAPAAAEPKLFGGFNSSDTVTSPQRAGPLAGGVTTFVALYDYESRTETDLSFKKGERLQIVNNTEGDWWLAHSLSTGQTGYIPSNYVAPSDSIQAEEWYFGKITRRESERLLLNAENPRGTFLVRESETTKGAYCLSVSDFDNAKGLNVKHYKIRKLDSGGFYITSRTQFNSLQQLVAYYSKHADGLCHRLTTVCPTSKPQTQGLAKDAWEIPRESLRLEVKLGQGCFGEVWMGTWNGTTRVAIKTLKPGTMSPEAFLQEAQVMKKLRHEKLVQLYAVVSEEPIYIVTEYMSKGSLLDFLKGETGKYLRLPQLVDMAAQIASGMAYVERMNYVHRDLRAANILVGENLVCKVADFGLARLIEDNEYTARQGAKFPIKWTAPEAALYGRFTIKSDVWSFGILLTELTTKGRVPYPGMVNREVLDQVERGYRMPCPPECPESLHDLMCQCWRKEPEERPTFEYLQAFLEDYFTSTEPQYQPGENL

As to `CN1CCN(c2ccc(Nc3ccnc4ccc(-c5cccc6ccccc56)cc34)cc2)CC1` [N-(4-(4-methylpiperazin-1-yl)phenyl)-6-(naphthalen-1-yl)quinolin-4-amine], the Activity result at ABL1 is recorded as “ABL1”; at LCK it was “LCK”; on SRC it was “SRC”.
In the case of `CN1CCN(c2ccc(Nc3ccnc4ccc(-c5ccncc5)cc34)cc2)CC1` [N-(4-(4-methylpiperazin-1-yl)phenyl)-6-(pyridin-4-yl)quinolin-4-amine], the Activity result in the assay with CK2 was “CK2”; on MSK1, “MSK1”; at AKT1, “AKT1”; on PKA, “PKA”; on CDK5, “CDK5”; at GSK-3-β it was “GSK-3-β”.
